According to US10364470B2, “Long non-coding RNA expressed in aggressive cancer” (The Regents of the University of California, priority 2014, dated 2019):

What was measured:
Assay type in all cases: cell-based, human
[1] = test system: SAILOR; test: SAILOR knockdown with shRNA in BT549 cell lines
Text: (§1) The effect of SAILOR on the growth rate of BT549 cells was studied. SAILOR expression was reduced by ˜80% in BT549 cell lines with a short-hairpin RNA (shRNA), 5′-[…]-3′ (SEQ ID NO:14), which targets SAILOR exon 4 at sequence […] (SEQ ID NO:15) (FIG. 5).

[2] = test system: SATB1; test: SATB1 transcription or protein level after SAILOR knockdown; details: BT549 cells
[3] = test system: BT549 cells; test: Growth rate of BT549 cells after SAILOR knockdown
Text: as §1

With “5′-GGTGGAAGAGTAAACTGTTCCCGAAGGAACAGTTTACTCTTCCACC-3′ (expressed or natural sequence) [shRNA]” the “SAILOR expression reduced (knock down)” value [1] was ~80%, the “effect of reduced SAILOR levels on SATB1 transcription or protein level” value [2] was “did not affect” and the “growth rate of SAILOR knockdown cells” value [3] was “slowed growth rate”.
